Data from a compilation of properties of binary mixtures (doi:10.1016/j.molliq.2014.07.031).

Assay: xn = mol fraction of the nth substance listed
Details: 101 kPa

CCCCCC[n+]1ccn(C)c1.[I-] + [I-].[Li+]
Details | electrical conductivity, x1 = 0.32 [S/m] | electrical conductivity, x1 = 0.59 [S/m] | viscosity, x1 = 0.32 [mPa·s] | viscosity, x1 = 0.59 [mPa·s] | viscosity, x1 = 1 [mPa·s]
288.1 K | 0.0025 | 0.0002 | – | – | –
293 K | 0.0046 | 0.0005 | – | – | 2633
298.1 K | 0.0086 | – | – | – | 1742
303 K | 0.011 | 0.0019 | – | 7760 | –
308.1 K | 0.0189 | – | – | – | 802
313 K | 0.032 | 0.0054 | – | 2420 | 564
318.1 K | 0.0536 | 0.0086 | – | 1470 | 405
323 K | 0.0894 | 0.0133 | – | 989 | 279
328.1 K | 0.145 | 0.0206 | – | 682 | –
333 K | – | 0.0301 | – | 491 | 164
338.1 K | – | 0.0428 | – | 359 | 123.6
343 K | 0.504 | 0.0601 | 380 | 272 | 100.4
348.1 K | – | 0.082 | – | 219 | 79.9
353 K | 0.842 | 0.109 | 225 | 179 | 64.6
358.1 K | 1.04 | 0.142 | 177 | 144.7 | 52.1
363 K | 1.27 | 0.182 | 144.7 | 119.9 | 42
368.1 K | 1.61 | 0.232 | 124.1 | 101.5 | –
373 K | – | 0.287 | – | – | –
